From patent publication US9968649B2, “Vasopressin formulations for use in treatment of hypotension” (Par Pharmaceutical, Inc., priority 2015, dated 2018)
Values joined by “and” are separate entries in the source; they are usually repeats but may differ in a detail not shown here. Identical values can stand only once.

Experiment: Effect of temperature on vasopressin formulations: HPLC vasopressin assay and impurities on storage (Example 8)
Assay type: physicochemical
Method: To analyze degradation products of vasopressin that can be present in an illustrative formulation of vasopressin, gradient HPLC was performed to separate vasopressin from related peptides and formulation components. TABLE 2 below depicts the results of the experiment detailing the chemical formula, relative retention time (RRT), molar mass, and structure of vasopressin and detected impurities.
Vasopressin was detected in the eluent using UV absorbance. The concentration of vasopressin in the sample was determined by the external standard method, where the peak area of vasopressin in sample injections was compared to the peak area of vasopressin reference standards in a solution of known concentration. The concentrations of related peptide impurities in the sample were also determined using the external standard method, using the vasopressin reference standard peak area and a unit relative response factor. An impurities marker solution was used to determine the relative retention times of identified related peptides at the time of analysis.
To test the effect of temperature on the stability of vasopressin formulation, solutions containing 20 units/mL vasopressin and chlorobutanol, adjusted to pH 3.5 with acetic acid, were prepared. One mL of each vasopressin formulations was then filled into 3 cc vials. Each Vasopressin Formulation was stored either inverted or upright for at least three months, up to 24 months, at: (i) 5° C.; (ii) 25° C. and 60% relative humidity; or (iii) 40° C. and 75% humidity, and the amount of vasopressin (U/mL) and % total impurities were measured periodically. TABLES 7-12 below display the results of the experiments at 5° C. The results of the experiments at 25° C. are included in TABLES 13-18. All of the experiments were performed in triplicate. The results of the experiments at 40° C. are included in TABLES 19-24. For each temperature tested, three lots of the vasopressin formulation were stored for 24 months (5° C. and 25° C.) and 3 months (40° C.), and measurements were taken at regular intervals during the testing periods. “NMT” as used in the tables denotes “not more than.”
Experiments were also conducted on the same samples above over the course of the experiments to measure the amount of individual impurities in the samples, pH of the samples, chlorobutanol content, particulate matter, antimicrobial effectiveness, and bacterial endotoxin levels (TABLES 25-42). (NR=no reading; ND=not determined; UI=unidentified impurity).

[1] = Upright, 40° C. (75% humidity), 1 month
[2] = Upright, 40° C. (75% humidity), 2 months
[3] = Upright, 40° C. (75% humidity), 3 months
[4] = Upright, 40° C. (75% humidity), Initial
[5] = inverted, 5° C., 1 month, listed as AVP
[6] = inverted, 5° C., 2 months, listed as AVP
[7] = inverted, 5° C., 3 months, listed as AVP

Compound: NC(=O)CC[C@@H]1NC(=O)[C@H](Cc2ccccc2)NC(=O)[C@H](Cc2ccc(O)cc2)NC(=O)[C@@H](N)CSSC[C@@H](C(=O)N2CCC[C@H]2C(=O)N[C@@H](CCCN=C(N)N)C(=O)NCC(N)=O)NC(=O)[C@H](CC(N)=O)NC1=O [Vasopressin, Cyclo (1-6) L-Cysteinyl-L-Tyrosyl-L-Phenylalanyl-L-Glutaminyl-L-Asparaginyl-L-Cysteinyl-L-Prolyl-L-Arginyl-L-Glycinamide]
- effect of upright or inverted storage position on stability: did not markedly affect the stability
- Total Impurities [1]: 3.6% and 3.5%
- Vasopressin Assay [1]: 18.9 U/mL and 19.2 U/mL
- Total Impurities [2]: 7.2%
- Vasopressin Assay [2]: 18.5 U/mL and 18.7 U/mL and 18.3 U/mL
- Total Impurities [3]: 10.3%
- Vasopressin Assay [3]: 17.2 U/mL and 17.4 U/mL and 17.5 U/mL
- Total Impurities [4]: 1.1% and 1.3%
- Vasopressin Assay [4]: 19.8 U/mL and 20.1 U/mL and 19.9 U/mL
- Related Substances: Acetyl-AVP (inverted, 5° C., 1 month): 0.2% and 0.3%
- Related Substances: Asp5-AVP (inverted, 5° C., 1 month): 0.1%
- Related Substances: SEQ ID NO.: 2 (inverted, 5° C., 1 month): 0.5%
- Related Substances: SEQ ID NO.: 4 (inverted, 5° C., 1 month): 0.6% and 0.5%
- Related Substances: SEQ ID NO.: 10 (inverted, 5° C., 1 month): 0.3%
- Related Substances: UI-0.75-0.78 (inverted, 5° C., 1 month): 0.2%
- Related Substances: UI-0.83-0.84 (inverted, 5° C., 1 month): 0.1%
- Related Substances: UI-1.02-1.03 (inverted, 5° C., 1 month): 0.2%
- Related Substances: UI-1.03 (inverted, 5° C., 1 month): 0.2%
- Vasopressin (AVP) Assay (inverted, 5° C., 1 month): 19.4 U/mL and 19.7 U/mL
- Total Impurities [5]: 2.0% and 2.2% and 1.9%
- Vasopressin (AVP) Assay [5]: 19.4 U/mL and 19.7 U/mL
- Related Substances: Acetyl-AVP (inverted, 5° C., 2 months): 0.3%
- Related Substances: Asp5-AVP (inverted, 5° C., 2 months): 0.1%
- Related Substances: SEQ ID NO.: 2 (inverted, 5° C., 2 months): 0.6% and 0.5%
- Related Substances: SEQ ID NO.: 4 (inverted, 5° C., 2 months): 0.6% and 0.5%
- Related Substances: SEQ ID NO.: 10 (inverted, 5° C., 2 months): 0.3%
- Related Substances: UI-0.75-0.78 (inverted, 5° C., 2 months): 0.2%
- Related Substances: UI-0.83-0.84 (inverted, 5° C., 2 months): 0.1%
- Related Substances: UI-0.84 (inverted, 5° C., 2 months): 0.1%
- Related Substances: UI-1.02-1.03 (inverted, 5° C., 2 months): 0.2%
- Related Substances: UI-1.03 (inverted, 5° C., 2 months): 0.2%
- Related Substances: UI-2.05 (inverted, 5° C., 2 months): 0.1%
- Vasopressin (AVP) Assay (inverted, 5° C., 2 months): 19.4 U/mL and 19.7 U/mL and 19.6 U/mL
- Total Impurities [6]: 2.1% and 2.3% and 2.0%
- Vasopressin (AVP) Assay [6]: 19.4 U/mL and 19.7 U/mL and 19.6 U/mL
- Related Substances: Acetyl-AVP (inverted, 5° C., 3 months): 0.3%
- Related Substances: Asp5-AVP (inverted, 5° C., 3 months): 0.1%
- Related Substances: SEQ ID NO.: 2 (inverted, 5° C., 3 months): 0.6% and 0.5%
- Related Substances: SEQ ID NO.: 4 (inverted, 5° C., 3 months): 0.7% and 0.6%
- Related Substances: SEQ ID NO.: 10 (inverted, 5° C., 3 months): 0.4%
- Related Substances: UI-0.75-0.78 (inverted, 5° C., 3 months): 0.2%
- Related Substances: UI-1.02-1.03 (inverted, 5° C., 3 months): 0.3%
- Related Substances: UI-1.03 (inverted, 5° C., 3 months): 0.3%
- Related Substances: UI-1.76 (inverted, 5° C., 3 months): 0.1%
- Vasopressin (AVP) Assay (inverted, 5° C., 3 months): 19.3 U/mL and 19.7 U/mL
- Total Impurities [7]: 2.3% and 2.4% and 2.2%
- Vasopressin (AVP) Assay [7]: 19.3 U/mL and 19.7 U/mL
- Related Substances: Acetyl-AVP (inverted, 5° C., 6 months): 0.2% and 0.3%
- Related Substances: Asp5-AVP (inverted, 5° C., 6 months): 0.1%
- Related Substances: SEQ ID NO.: 2 (inverted, 5° C., 6 months): 0.6% and 0.5%
- Related Substances: SEQ ID NO.: 4 (inverted, 5° C., 6 months): 0.7% and 0.6%
- Related Substances: SEQ ID NO.: 10 (inverted, 5° C., 6 months): 0.3%
